# Measurements reported in patent US20250188133A1, “CHIMERIC BACTERIOCINS AND METHOD FOR THE CONTROL OF PSEUDOMONAS” (priority 2022, published 2025).
# B1: S5-Pflu794: chimeric bacteriocin SEQ ID NO: 17: pyocin S5 first segment fused to P. fluorescens Pflu794 killing domain (protein)
# chain: MSNDNEVPGSMVIVAQGPDDQYAYEVPPIDSAAVAGNMFGDLIQREIYLQKNIYYPVRSIFEQGTKEKKEINKKVSDQVDGLLKQITQGKREATRQERVDVMSAVLHKMESDLEGYKKTFTKGPFIDYEKQSSLSIYEAWVKIWEKNSWEERKKYPFQQLVRDELERAVAYYKQDSLSEAVKVLRQELNKQKALKEKEDLSQLERDYRTRKANLEMKVQSELDQAGSALPPLVSPTPEQWLERATRLVTQAIADKKQLQTTNNTLIKNSPTPLEKQKAIYNGELLVDEIASLQARLVKLNAETTRRRTEKASDQANNVDIEEAILFTTTFYENLTEKYGEKVSAVAKELAESAKGKTMRSSKEALQTFEKYKDTYNGRFRSRDRREVDRALKSLDKELLSKNLAKFSKAFGSVSKIGDLTEVFIELENSIRTGDWKPLLLTLEGIGLGMAGTYLVAAVFGISATTPLGIVVFAVLMAATSAYIDDDLVKKVNKDLFGF
# modifications: S5-Pflu794
# Experiments:
# P. aeruginosa PAO1 = experiment: murine keratitis model, invasive strain (C57BL/6 mice); assay type: in vivo
# Description: (§1) The inbred mice of C57BL/6 strain of both sexes in equivalent numbers were used for the research. 2-6 months old, adult female and adult male mice were purchased from the Vilnius University vivarium of laboratory animals. The animals throughout the period of the experiment were given standard chow and drinking water ad libitum. Animals were housed in the individual plastic cages in a 12 h light/dark cycle at 21-23° C. All regulated procedures on living animals were approved by The Lithuanian Ethics Committee of Biomedical Research (Protocol no. B1-442) and were carried out in accordance with the European Union legislation of OECD (directive 2010/63/EU). The experiments were carried out in Biological research center of Lithuanian University of Health Sciences.
# (§2) For P. aeruginosa infection and keratitis induction the mice were anesthetized by Ketamine and Xylazine 90:9 mg/kg intraperitoneal injection. The cornea of the left eye of each mouse was visualized under a stereoscopic microscope, and three 1 mm scratches were made using a sterile 25 gauge needle. A 10 μL aliquot containing 4×10^6 cells of P. aeruginosa ATCC 19660 (cytotoxic strain) or PAO1 ATCC 15692 (invasive strain) was applied to the corneal surface. Depending on the experiment, the treatment was started 30 min or 6 h post infection. 10 μl aliquot containing 0.14 mg of tobramycin or 20 μg of S5-PmnH (both containing 0.5% hydroxypropyl methylcellulose (HPMC)) or PBS containing 0.5% HPMC was applied as one drop of substance to the each eye. HPMC is used as artificial tears and was used in order to thicken the tears film and prolong the presence of the applied product on the surface of the cornea. The treatment was continued for five days twice daily. Mice were euthanized by cervical dislocation 1, 3, 5 days post infection, and the eyeballs were collected and homogenized for viable bacteria count.
# (§3) The eyes were examined and photographed with a dissection microscope equipped with a digital camera at 1, 3 and 5 dpi to monitor the disease progression. At 1, 3 and 5 dpi disease severity was visually graded by using an established corneal damage scale: 0, the pupil was partially or fully covered by clear or slight opacity; +1, the anterior segment was partially or fully covered by slight opacity; +2, the pupil was partially or fully covered by dense opacity; +3, the entire anterior segment was covered by dense opacity; and +4, corneal perforation^40.
# (§4) Histopathology experiments were carried out at Lithuanian University of Health Sciences, Department of Veterinary Pathobiology of Veterinary Academy. One randomly chosen mice of each study group was used for histopathology experiments. Enucleated eyes were preserved in 10% formaldehyde. Eyes were paraffin-embedded, cut into 3-μm-thick sections, deparaffinised, rehydrated and used for preparation of hematoxylin/eosin stained samples.
# P. aeruginosa ATCC 19660 = experiment: murine keratitis model, cytotoxic strain (C57BL/6 mice); assay type: in vivo
# Description: as §1, §2, §3, §4
# P. aeruginosa ATCC 27853 = experiment: murine lung colonization and treatment (CD1 mice); assay type: in vivo; details: 5 h post infection
# Description: CD1 male mice were supplied by Charles River (Margate, UK) and were specific pathogen free. Mice were 11 to 15 g on receipt at the facility and were allowed to acclimatize for at least 7 days.
# P. aeruginosa ATCC 27853 was recovered from long-term storage (−80° C.) and cultured on cystine-lactose-electrolyte-deficient (CLED) agar at 37° C. under aerobic conditions for approximately 16-24 h. 20 ml of Mueller Hinton broth was inoculated with a single well isolated colony and cultured overnight at 37° C. with shaking at 300 rpm65. The overnight broth was diluted 1:100 in Mueller Hinton broth and 100 ml was cultured in a baffle flask for ˜6 h at 37° C. with shaking at 300 rpm until the broth OD was ˜0.6 (˜mid-exponential phase). 20 ml of culture was centrifuged at 2465 g for 10 minutes and washed in PBS. The pellet was suspended in PBS and the OD600 adjusted to 0.67 (˜2.6×10^8 CFU/ml). The study inoculum was prepared from this by appropriate dilution with PBS. The inoculum concentration was confirmed by quantitative culture on Pseudomonas Selective Agar (PSA). The inoculum concentration for the study was 1.47×10^7 CFU/ml (5.87×10^5 CFU/mouse).
# Mice were infected under temporary inhaled 3% isoflurane anesthesia by intranasal (IN) instillation with 40 μl of the inoculum suspension split as 20 μl/nostril.
# 1 hour post infection 6 mice were sacrificed in order to evaluate the pre-treatment burden in lungs. Treatments were administered IN once at 1 h post infection (50 μl split to 25 μl/nares). Three treatment groups consisting of six mice each were administered S5-PmnH (2.5, 25 and 250 μg). The fourth group of mice (n=6) was administered 200 μg Tobramycin (40 mg/ml injection solution, Hospira UK Ltd, diluted 10 times). The study was terminated at 5 hours post infection for all animals. The clinical conditions and weights were assessed and animals were immediately euthanized using an overdose of pentobarbitone. Following confirmation of death, the lungs were excised and homogenized in ice cold sterile phosphate buffered saline using a Precellys bead beater. The homogenates were quantitatively cultured onto PSA agar and incubated at 37° C. for 24 hours before colonies were counted.
# P. aeruginosa strains = experiment: agar disc-diffusion assay, panel of 25 strains; assay type: cell-based; details: panel of 25 P. aeruginosa strains, in words
# Description: (§5) Overnight P. aeruginosa cultures grown in CAA medium were equalized till OD595=1.0 in CAA and diluted 100×. Sterile cotton swab was briefly submerged in diluted microbial suspension, removing the excess of liquid by pressing it against the container wall. The swab was used for evenly streaking bacteria on plates containing growth medium with CAA solid agar (1.5%). 6 mm diameter sterile Whatman discs were placed on soft-agar and 0.3-30 μg of chimeric pyocins were spotted to paper disks. The plates were incubated overnight at 37° C. and bacteriocin inhibition zones were observed.
# (§6) Next, all 25 P. aeruginosa strains were subjected to agar disc-diffusion assay by spotting different amounts of purified pyocin S5 (0.3 μg, 3 μg and 30 μg) on bacteria lawns. Six P. aeruginosa strains were resistant to pyocin S5. Four of these six strains were pyocin S5 and immunity protein-encoding strains—PA14, PAO1, […] and NCTC 13921. Two cystic fibrosis isolates, 12-35708 and 12-29165 were also completely resistant to pyocin S5, despite the absence of S5, or S5 immunity protein coding genes. […] Turbid inhibition zones were detected when 3 μg and 30 μg of S5 were spotted on the lawn of these strains (Table 1, FIG. 3).
# P. aeruginosa HP40 = experiment: agar disc-diffusion assay; assay type: cell-based; details: strain HP40; 0.3, 3 and 30 μg of protein spotted on discs on CAA agar lawn, overnight
# Description: as §5, §6
# P. aeruginosa NCTC 13921 = experiment: agar disc-diffusion assay; assay type: cell-based; details: strain NCTC 13921; 0.3, 3 and 30 μg of protein spotted on discs on CAA agar lawn, overnight
# Description: as §5, §6
# P. aeruginosa Pr335 = experiment: agar disc-diffusion assay; assay type: cell-based; details: strain Pr335; 0.3, 3 and 30 μg of protein spotted on discs on CAA agar lawn, overnight
# Description: as §5, §6
# P. aeruginosa A19 = experiment: agar disc-diffusion assay; assay type: cell-based; details: strain A19; 0.3, 3 and 30 μg of protein spotted on discs on CAA agar lawn, overnight
# Description: as §5, §6
# [1] = system: P. aeruginosa Boston 41501 (ATCC 27853); experiment: agar disc-diffusion assay; assay type: cell-based; details: strain Boston; 0.3, 3 and 30 μg of protein spotted on discs on CAA agar lawn, overnight
# Description: as §5, §6
# P. aeruginosa HP6 = experiment: agar disc-diffusion assay; assay type: cell-based; details: strain HP6; 0.3, 3 and 30 μg of protein spotted on discs on CAA agar lawn, overnight
# Description: as §5, §6
# [2] = treatment started 30 min post infection
molecule,measurement,setting,value
"NC[C@H]1O[C@H](O[C@H]2[C@H](O)[C@@H](O[C@H]3O[C@H](CO)[C@@H](O)[C@H](N)[C@H]3O)[C@H](N)C[C@@H]2N)[C@H](N)C[C@@H]1O [tobramycin, reference compound]",histological examination of infected treated eyes,P. aeruginosa PAO1; 1 dpi,signs of acute inflammation of cornea
same,histological examination of infected treated eyes,P. aeruginosa PAO1; 3 dpi,thinning of cornea epithelium and strong edema of the corneal stroma
same,histological examination of infected treated eyes,P. aeruginosa PAO1; day 5,"local inflammation of cornea, thinning and degeneration of cornea epithelium"
same,average reduction of bacterial burden vs mock-treated,"P. aeruginosa PAO1; treatment started 6 h post infection, 1 dpi",1.42 log 10 CFU/cornea
same,mice from which no viable bacteria were isolated,"P. aeruginosa PAO1; treatment started 6 h post infection, 3 dpi, three mice per group",three
same,"viable bacteria in cornea, individual mice","P. aeruginosa PAO1; treatment started 6 h post infection, 5 dpi, mice with bacteria",2.8 log 10 CFU/cornea
same,mice from which no bacteria were isolated,"P. aeruginosa PAO1; treatment started 6 h post infection, 5 dpi, three mice per group",two
same,histopathology of infected treated eyes,P. aeruginosa ATCC 19660; [2],Only weak oedema in the corneal stroma
same,"signs of disease (visual inspection, clinical score)",P. aeruginosa ATCC 19660; [2],No signs of disease were observed in majority of samples
same,viable bacteria isolated from infected eyes,"P. aeruginosa ATCC 19660; treatment started 30 min post infection, twice daily, 1, 3 or 5 dpi, 20 μg S5-PmnH or 0.14 mg tobramycin per eye",no viable P. aeruginosa were isolated
same,viable bacteria isolated,"P. aeruginosa ATCC 19660; treatment started 6 h post infection, 1, 3 or 5 dpi",no viable bacteria were isolated
same,clinical score evaluation,"P. aeruginosa ATCC 19660; treatment started 6 h post infection, 1 and 3 dpi, two S5-PmnH-treated and one tobramycin-treated mice",Only mild disease signs were observed
same,histopathology of infected treated eyes,"P. aeruginosa ATCC 19660; treatment started 6 h post infection, 3 and 5 dpi",slight thickening of epithelium
same,clinical score evaluation,"P. aeruginosa ATCC 19660; treatment started 6 h post infection, 5 dpi",all corneas were completely clear
same,reduction of lung burden vs vehicle,P. aeruginosa ATCC 27853; 200 μg/mouse IN once 1 h post infection,2.75 log10 CFU/g
same,reduction of burden below the level of stasis (pre-treatment),P. aeruginosa ATCC 27853; 200 μg/mouse IN once,1.23 log10 CFU/g
B1,activity spectrum / profile in agar disc diffusion assay,P. aeruginosa strains,only week activity on 6 tested strains
same,Activity in agar disc-diffusion assay,P. aeruginosa HP40,* (activity detected only with 30 μg of protein)
same,Activity in agar disc-diffusion assay,P. aeruginosa NCTC 13921,* (activity detected only with 30 μg of protein)
same,Activity in agar disc-diffusion assay,P. aeruginosa Pr335,** (activity detected with 3 μg of protein)
same,Activity in agar disc-diffusion assay,P. aeruginosa A19,*** (activity detected with 0.3 μg of protein)
same,Activity in agar disc-diffusion assay,[1],* (activity detected only with 30 μg of protein)
same,Activity in agar disc-diffusion assay,P. aeruginosa HP6,* (activity detected only with 30 μg of protein)
